Source: article PMC12084297, “Cytoplasmic connexin43-microtubule interactions promote glioblastoma stem-like cell maintenance and tumorigenicity” (Cell Death & Disease, 2025)

Experiments:
VTC-034 GSCs = assay: Cellular uptake by NeutrAvidin-HRP blotting, VTC-034 GSCs; assay type: in vitro ADME, human
Text: JM2 peptide includes the Cx43 C-terminal amino acids 231–245 that encompass the tubulin binding sequence (VFFKGVKDRVKGRSD). A control peptide, JM2-scrambled, was generated by random re-assembly of the same residues (GSDVFKRKFVDRKVG). Both peptides contain a 16-amino acid antennapedia internalization sequence (RQPKIWFPNRRKPWKK) and are N-terminally biotinylated. Lyophilized peptides were obtained from Peptron, Inc. (South Korea) with purity > 95%, reconstituted in water or in PBS at a concentration of 10 mM, and aliquots were stored at −80 °C freezer. Reconstituted peptides were added to the cell culture medium at different concentrations for times indicated. […]
Cells were lysed in RIPA buffer (0.1% sodium dodecyl sulphate, 50 mM Tris pH 7.4, 150 mM NaCl, 1 mM EDTA, 1% Triton X-100, 1% deoxycholic acid, 200 μM Na3VO4, and 1 mM NaF) supplemented with Halt^TM Protease and Phosphatase Inhibitor Cocktail (Thermo Fisher). […] Protein concentration was quantified using the DC protein assay (Bio-Rad Laboratories) and a standard curve obtained with increasing concentrations of Bovine Serum Albumin (BSA; Fisher Scientific). […] Membranes were imaged on a ChemiDoc™ imaging system, and analyzed with Image Lab software (Bio-Rad Laboratories). […]

HEY1 mRNA = HEY1 mRNA by RT-qPCR, VTC-001 GSCs; assay type: cell-based, human; conditions: 50 μM, 24 h, RT-qPCR (as worded in text; no figure panel described)
Procedure: RNA was extracted using the PureLink^TM RNA mini extraction kit (Thermo Fisher) and on-column DNA digestion was completed using PureLink^TM DNase according to the manufacturer’s instructions. RNA was reverse transcribed to generate cDNA using the iScript^TM Reverse Transcription SuperMix for RT-qPCR kit (Bio-Rad Laboratories). Real-time PCR was performed using the SYBR select Master Mix for CFX (Thermo Fisher) in hard-shell 96-well PCR plates (Bio-Rad Laboratories) on a CFX Connect Real Time System (Bio-Rad Laboratories). Primer sequences used were: hNOTCH1_Fwd: 5’-CGCACAAGGTGTCTTCCAG-3’; hNOTCH1_Rev: 5’-CGGCGTGTGAGTTGATGA-3’; hHES1_Fwd: 5’-GGCTGGAGAGGCGGCTAA-3’; hHES1_Rev: 5’-[…]-3’; hHEY1_Fwd: 5’-[…]-3’; hHEY1_Rev: 5’-[…]-3’.

VTC-001 GSCs = assay: Gliosphere formation assay, VTC-001 GSCs; assay type: cell-based, human; conditions: VTC-001, 10, 50 or 100 μM every other day, 2 weeks
Procedure: GSCs and PDX GBM22 cells were plated as single cell suspension in low-attachment 96-well plates (GSCs: 100–500 cells per well; GBM22 cells: 500–2000 cells per well), using methods similar to those reported previously. Cells were then treated with peptides every other day. 2 weeks later, gliospheres were observed using phase contrast microscopy on a Revolve microscope (Echo Laboratories). The number of gliospheres was then determined, while the gliosphere size was assessed by diameter measurement. To evaluate stem cell frequency in GSCs, gliosphere formation assay was performed with limiting cell dilutions with cells plated at varying densities in low-attachment 96-well plates. Cells were treated with peptides every other day, and after 2 weeks, gliosphere-positive wells were observed and scored using phase contrast microscopy on a Revolve microscope. The stem cell frequency was analyzed using the online data analysis program ELDA (Extreme Limiting Dilution Analysis).

Question: With VFFKGVKDRVKGRSD [JM2] as the sequence, how does the “Cellular uptake over time” value (VTC-034 GSCs; 50 μM, different times up to 48 h, NeutrAvidin-HRP blot) read?
Answer: Its value is “apparent after 1 h, and sustained for 24 h before JM2 signal in GSCs decreased at 48 h”.

Question: And the “Cellular uptake at increasing concentrations” value (VTC-034 GSCs; different concentrations, 24 h, NeutrAvidin-HRP blot of biotin-tagged peptide)?
Answer: The value was “Cellular uptake of JM2 at increasing concentrations was confirmed”.

Question: What about the “Hey1 mRNA expression” value (HEY1 mRNA) of the same sequence?
Answer: The value was “significantly decreased the expression of Notch downstream targets Hes1 and Hey1 at the transcription level”.

Question: What about the GSC-dependent gliosphere formation (VTC-001 GSCs) of the same sequence?
Answer: Its GSC-dependent gliosphere formation is “inhibits VTC-001, VTC-034, and VTC-037 GSC-dependent gliosphere formation in a dose-dependent manner”.

Question: What about the “Gliosphere size (diameter)” value (VTC-001 GSCs; n = 4) of the same sequence?
Answer: Its value is “significant decrease in gliosphere size”.

Question: And the Gliosphere number (VTC-001 GSCs; n = 6)?
Answer: Its Gliosphere number is “significant decrease in gliosphere size as assessed by diameter measurement (Fig. 6B), and number”.
